This note sets out measurements from ChEMBL document CHEMBL5528066, “Discovery of Novel N-(Anthracen-9-ylmethyl) Benzamide Derivatives as ZNF207 Inhibitors Promising in Treating Glioma” (J Med Chem, 2024).

In test [1] the target is BUB3-interacting and GLEBS motif-containing protein ZNF207 (Homo sapiens, UniProt O43670). As to the kind of experiment: Binding affinity to ZNF207 in human H4 cells assessed as thermal stabilization by measuring melting temperature at 30 uM incubated for 3 hrs by CETSA (reference value: 48.9 degreeC). The format is cell-based.
Test [2] relates to LN-229. Briefly: Downregulation of SOX2 protein expression in human LN-229 cells at 2 to 4 uM incubated for 48 hrs by Western blot analysis. The format is functional, cell-based. Particulars: dose 2-4 µM. In general terms: A western blot detects proteins with antibodies after separation by electrophoresis.
Test [3] deals with Hs 683. As to the kind of experiment: Inhibition of sphere formation in human Hs 683 cells at 1 uM measured after 10 days in well containing 1000 cells by microscopic analysis. Particulars: time 10.0 day. The format is functional, cell-based.

Structures are written as SMILES. Active and inactive are the calls of the source. No cut-off for these calls is given here.

BUB3-interacting and GLEBS motif-containing protein ZNF207, sequence (O43670 whole entry): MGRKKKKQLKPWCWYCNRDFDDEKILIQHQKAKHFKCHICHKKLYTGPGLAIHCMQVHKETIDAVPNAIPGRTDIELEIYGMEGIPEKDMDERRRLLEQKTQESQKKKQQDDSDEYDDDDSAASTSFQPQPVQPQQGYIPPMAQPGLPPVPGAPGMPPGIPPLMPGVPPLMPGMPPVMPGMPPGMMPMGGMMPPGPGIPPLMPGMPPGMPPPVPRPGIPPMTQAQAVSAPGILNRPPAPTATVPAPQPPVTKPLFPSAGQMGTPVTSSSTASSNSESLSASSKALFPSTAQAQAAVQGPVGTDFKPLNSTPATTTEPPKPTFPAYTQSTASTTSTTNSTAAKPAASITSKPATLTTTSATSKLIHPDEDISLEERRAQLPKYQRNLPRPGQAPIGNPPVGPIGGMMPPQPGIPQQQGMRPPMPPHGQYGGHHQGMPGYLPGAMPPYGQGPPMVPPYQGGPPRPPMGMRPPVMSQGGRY

On to `N#CC1(C(=O)NCCC2CCN(Cc3ccccc3)CC2)CC2(Br)c3ccccc3C1c1ccccc12` (racemic), for which the Tm in test [1] turned out to be 50.8 °C. Further, the outcome in test [2] was Active. Further, the inhibition result in test [3] was “inactive”.
